Experimental data from PMC8153216 (Chemical Science, 2021).

Tested on: Coxsackievirus B3 (CVB3)
Assay: Anti Coxsackie B3 activity assay
Type: cell-based, Coxsackie viruse B3 (Nancy strain)
Conditions: CVB3 in Vero cells

Row | SMILES | SI (TC50/IC50)
1 | Cc1cc(CCCOc2c(C)cc(-c3noc(C(F)(F)F)n3)cc2C)on1 [Pleconaril] | 14045.1
2 | NC(=O)c1ncn([C@@H]2O[C@H](CO)[C@@H](O)[C@H]2O)n1 [Ribavirin] | 5.2
